According to patent US20260262643A1, “HERBICIDAL BENZOXAZINES” (FMC CORPORATION, priority 2022, published 2026):

What was measured:
barnyardgrass [1] = assay: Test C preemergence; assay type: in vivo, Echinochloa crusgalli
Method in brief: (§1)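 Seeds in loam–sand blend received preemergence directed soil spray of test chemicals in non-phytotoxic solvent with surfactant; postemergence treatment was applied at one- to two-leaf stage (2–10 cm). After 10 days in greenhouse, injury rated visually versus untreated controls, 0 (no effect) to 100 (complete control).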

blackgrass [2] = assay: Test C preemergence; assay type: in vivo, Alopecurus myosuroides
Method in brief: as §1

corn [3] = assay: Test C preemergence; assay type: in vivo, Zea mays
Method in brief: as §1

foxtail, giant [4] = assay: Test C preemergence; assay type: in vivo, Setaria faberi
Method in brief: as §1

kochia [5] = assay: Test C preemergence; assay type: in vivo, Bassia scoparia
Method in brief: as §1

oat, wild [6] = assay: Test C preemergence; assay type: in vivo, Avena fatua
Method in brief: as §1

pigweed, palmer [7] = assay: Test C preemergence; assay type: in vivo, Amaranthus palmeri
Method in brief: as §1

ragweed [8] = assay: Test C preemergence; assay type: in vivo, Ambrosia artemisiifolia
Method in brief: as §1

ryegrass, Italian [9] = assay: Test C preemergence; assay type: in vivo, Lolium multiflorum
Method in brief: as §1

soybean [10] = assay: Test C preemergence; assay type: in vivo, Glycine max
Method in brief: as §1

wheat [11] = assay: Test C preemergence; assay type: in vivo, Triticum aestivum
Method in brief: as §1

barnyardgrass [12] = assay: Test C postemergence; assay type: in vivo, Echinochloa crusgalli; settings: 10 days, 0 to 100 scale (0 no effect, 100 complete control)
Method in brief: as §1

blackgrass [13] = assay: Test C postemergence; assay type: in vivo, Alopecurus myosuroides; settings: 10 days, 0 to 100 scale (0 no effect, 100 complete control)
Method in brief: as §1

corn [14] = assay: Test C postemergence; assay type: in vivo, Zea mays; settings: 10 days, 0 to 100 scale (0 no effect, 100 complete control)
Method in brief: as §1

foxtail, giant [15] = assay: Test C postemergence; assay type: in vivo, Setaria faberi; settings: 10 days, 0 to 100 scale (0 no effect, 100 complete control)
Method in brief: as §1

kochia [16] = assay: Test C postemergence; assay type: in vivo, Bassia scoparia; settings: 10 days, 0 to 100 scale (0 no effect, 100 complete control)
Method in brief: as §1

oat, wild [17] = assay: Test C postemergence; assay type: in vivo, Avena fatua; settings: 10 days, 0 to 100 scale (0 no effect, 100 complete control)
Method in brief: as §1

pigweed, palmer [18] = assay: Test C postemergence; assay type: in vivo, Amaranthus palmeri; settings: 10 days, 0 to 100 scale (0 no effect, 100 complete control)
Method in brief: as §1

ragweed [19] = assay: Test C postemergence; assay type: in vivo, Ambrosia artemisiifolia; settings: 10 days, 0 to 100 scale (0 no effect, 100 complete control)
Method in brief: as §1

ryegrass, Italian [20] = assay: Test C postemergence; assay type: in vivo, Lolium multiflorum; settings: 10 days, 0 to 100 scale (0 no effect, 100 complete control)
Method in brief: as §1

soybean [21] = assay: Test C postemergence; assay type: in vivo, Glycine max; settings: 10 days, 0 to 100 scale (0 no effect, 100 complete control)
Method in brief: as §1

wheat [22] = assay: Test C postemergence; assay type: in vivo, Triticum aestivum; settings: 10 days, 0 to 100 scale (0 no effect, 100 complete control)
Method in brief: as §1

galium = assay: Test C postemergence; assay type: in vivo, Galium aparine; settings: 10 days, 0 to 100 scale (0 no effect, 100 complete control)
Method in brief: as §1

horseweed = assay: Test C postemergence; assay type: in vivo, Erigeron canadensis; settings: 10 days, 0 to 100 scale (0 no effect, 100 complete control)
Method in brief: as §1

barnyardgrass [23] = assay: Test D flooded paddy test; assay type: in vivo, Echinochloa crus-galli; settings: 250 g ai/ha, applied to paddy water, visual rating after 13 to 14 days, scale 0 to 100 (0 no effect, 100 complete control)
Method in brief: (§2)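 Post-flood water application at the 2-leaf stage; 3 cm flood depth kept constant; visual control rating 0–100 after 13–14 days greenhouse growth.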

ducksalad = assay: Test D flooded paddy test; assay type: in vivo, Heteranthera limosa; settings: 250 g ai/ha, applied to paddy water, visual rating after 13 to 14 days, scale 0 to 100 (0 no effect, 100 complete control)
Method in brief: as §2

rice = assay: Test D flooded paddy test; assay type: in vivo, Oryza sativa; settings: 250 g ai/ha, applied to paddy water, visual rating after 13 to 14 days, scale 0 to 100 (0 no effect, 100 complete control)
Method in brief: as §2

sedge, umbrella = assay: Test D flooded paddy test; assay type: in vivo, Cyperus difformis; settings: 250 g ai/ha, applied to paddy water, visual rating after 13 to 14 days, scale 0 to 100 (0 no effect, 100 complete control)
Method in brief: as §2

[24] = 500 g ai/ha, preemergence, 0 to 100 scale (0 no effect, 100 complete control)
[25] = Preemergence, 125 g ai/ha, 0 to 100 scale, 0 no effect, 100 complete control

`Cc1cccc2c1OC(C(F)(F)F)CN2C(=O)c1ccnc(-n2cnc(C(C)C)n2)c1` (stereo not shown) [Compound 327] was tested, and the “Barnyardgrass plant response rating” value (barnyardgrass [1]; [24]) was 90, the “Plant response rating, Barnyardgrass” value (barnyardgrass [1]; [25]) was 50 and the “Blackgrass plant response rating” value (blackgrass [2]; [24]) was 90. For the same molecule, the “Plant response rating, Blackgrass” value (blackgrass [2]; [25]) was 90, the “Corn plant response rating” value (corn [3]; [24]) was 70 and the “Plant response rating, Corn” value (corn [3]; [25]) was 20. The “Foxtail, Giant plant response rating” value (foxtail, giant [4]; [24]) was 100, the “Plant response rating, Foxtail, Giant” value (foxtail, giant [4]; [25]) was 100 and the “Kochia plant response rating” value (kochia [5]; [24]) was 90. The “Plant response rating, Kochia” value (kochia [5]; [25]) was 20, the “Oat, Wild plant response rating” value (oat, wild [6]; [24]) was 70 and the “Plant response rating, Oat, Wild” value (oat, wild [6]; [25]) was 20. The “Pigweed, Palmer plant response rating” value (pigweed, palmer [7]; [24]) was 90, the “Plant response rating, Pigweed, Palmer” value (pigweed, palmer [7]; [25]) was 50 and the “Ragweed plant response rating” value (ragweed [8]; [24]) was 30. For the same molecule, the “Plant response rating, Ragweed” value (ragweed [8]; [25]) was 0, the “Ryegrass, Italian plant response rating” value (ryegrass, Italian [9]; [24]) was 100 and the “Plant response rating, Ryegrass, Italian” value (ryegrass, Italian [9]; [25]) was 90. For the same molecule, the “Soybean plant response rating” value (soybean [10]; [24]) was 100, the “Plant response rating, Soybean” value (soybean [10]; [25]) was 100 and the “Wheat plant response rating” value (wheat [11]; [24]) was 90. For the same molecule, the “Plant response rating, Wheat” value (wheat [11]; [25]) was 40, the “Plant response rating, Barnyardgrass” value (barnyardgrass [12]; 500 g ai/ha, postemergence) was 90 and the “Plant response rating, Barnyardgrass” value (barnyardgrass [12]; Postemergence, 125 g ai/ha) was 40. For the same molecule, the “Plant response rating, Blackgrass” value (blackgrass [13]; 500 g ai/ha, postemergence) was 90, the “Plant response rating, Blackgrass” value (blackgrass [13]; Postemergence, 125 g ai/ha) was 30 and the “Plant response rating, Corn” value (corn [14]; 500 g ai/ha, postemergence) was 90. For the same molecule, the “Plant response rating, Corn” value (corn [14]; Postemergence, 125 g ai/ha) was 70, the “Plant response rating, Foxtail, Giant” value (foxtail, giant [15]; 500 g ai/ha, postemergence) was 90 and the “Plant response rating, Foxtail, Giant” value (foxtail, giant [15]; Postemergence, 125 g ai/ha) was 60. For the same molecule, the “Plant response rating, Kochia” value (kochia [16]; 500 g ai/ha, postemergence) was 90, the “Plant response rating, Kochia” value (kochia [16]; Postemergence, 125 g ai/ha) was 40 and the “Plant response rating, Oat, Wild” value (oat, wild [17]; 500 g ai/ha, postemergence) was 90. For the same molecule, the “Plant response rating, Oat, Wild” value (oat, wild [17]; Postemergence, 125 g ai/ha) was 40, the “Plant response rating, Pigweed, Palmer” value (pigweed, palmer [18]; 500 g ai/ha, postemergence) was 50 and the “Plant response rating, Pigweed, Palmer” value (pigweed, palmer [18]; Postemergence, 125 g ai/ha) was 30. For the same molecule, the “Plant response rating, Ragweed” value (ragweed [19]; 500 g ai/ha, postemergence) was 40, the “Plant response rating, Ragweed” value (ragweed [19]; Postemergence, 125 g ai/ha) was 30 and the “Plant response rating, Ryegrass, Italian” value (ryegrass, Italian [20]; 500 g ai/ha, postemergence) was 80. For the same molecule, the “Plant response rating, Ryegrass, Italian” value (ryegrass, Italian [20]; Postemergence, 125 g ai/ha) was 40, the “Plant response rating, Soybean” value (soybean [21]; 500 g ai/ha, postemergence) was 100 and the “Plant response rating, Soybean” value (soybean [21]; Postemergence, 125 g ai/ha) was 100. The “Plant response rating, Wheat” value (wheat [22]; 500 g ai/ha, postemergence) was 30, the “Plant response rating, Wheat” value (wheat [22]; Postemergence, 125 g ai/ha) was 20 and the “Plant response rating, Galium” value (galium; 500 g ai/ha, postemergence) was 100. The “Plant response rating, Galium” value (galium; Postemergence, 125 g ai/ha) was 70, the “Plant response rating, Horseweed” value (horseweed; 500 g ai/ha, postemergence) was 60 and the “Plant response rating, Horseweed” value (horseweed; Postemergence, 125 g ai/ha) was 0. For the same molecule, the “Plant response rating, Barnyardgrass (Flood)” value (barnyardgrass [23]) was 15, the “Plant response rating, Ducksalad (Flood)” value (ducksalad) was 25 and the “Plant response rating, Rice (Flood)” value (rice) was 0. The “Plant response rating, Sedge, Umbrella (Flood)” value (sedge, umbrella) was 70.
